In patent publication US6608078B2, “Antibacterial chiral 8-(substituted piperidino)-benzo [i,j] quinolizines, processes, compositions and methods of treatment” (Wockhardt Limited, priority 2000, dated 2003):
≈ marks a conversion by molar mass, not a printed value.

Experiments:
Assay type in all cases: cell-based
MRSA = test: In-vitro antimicrobial test (MIC, NCCLS protocol); conditions: standard NCCLS protocol
Text: (§1) The activity of the compounds of the invention in-vitro can be illustrated as follows:
(§2) The test method was in accordance with the standard NCCLS protocol.

S. pneumoniae = test: In-vitro antimicrobial test (MIC, NCCLS protocol); conditions: standard NCCLS protocol
Text: as §1, §2

VRE = test: In-vitro antimicrobial test (MIC, NCCLS protocol); conditions: standard NCCLS protocol
Text: as §1, §2

P. aeruginosa = test: In-vitro antimicrobial test (MIC, NCCLS protocol); conditions: standard NCCLS protocol
Text: as §1, §2

E. coli = test: In-vitro antimicrobial test (MIC, NCCLS protocol); conditions: standard NCCLS protocol
Text: as §1, §2

S. pneumoniae ATCC 6303 = test: % Killing of Streptococci at 4 MIC, 8 hrs
Text: (§3) Comparison of a typical compound of the invention vs S-(−)-9-fluoro-8-(4′-hydroxypiperidin-1-yl)-5-methyl-6,7-dihydro-1-oxo-1H-5H-benzo[i,j]quinolizine-2-carboxylic acid in terms of % Killing of Streptococci
(§4) As against this, a typical compound of the invention, which has an improved bactericidal power againt streptococci, consistently brings about killing of 99% of streptococcal population.

S. salivarius ATCC 13419 = test: % Killing of Streptococci at 4 MIC, 8 hrs
Text: as §3, §4

S. sanguis ATCC 10556 = test: % Killing of Streptococci at 4 MIC, 8 hrs
Text: as §3, §4

S. pyogenes ATCC 25147 = test: % Killing of Streptococci at 4 MIC, 8 hrs
Text: as §3, §4

streptococcal population = test: % Killing of Streptococci, summary over strains; conditions: exposed to 4×MIC concentrations for 8 hours; depending upon the streptococcal strain
Text: as §3, §4

| MIC (MRSA) | MIC (S. pneumoniae) | MIC (VRE) | MIC (P. aeruginosa) | MIC (E. coli) | Structure (SMILES) | 4 MIC-% Kill at 8 hrs. (S. pneumoniae ATCC 6303) | 4 MIC-% Kill at 8 hrs. (S. salivarius ATCC 13419) | 4 MIC-% Kill at 8 hrs. (S. sanguis ATCC 10556) | 4 MIC-% Kill at 8 hrs. (S. pyogenes ATCC 25147) | killing of streptococcal population (streptococcal population) |
| --- | --- | --- | --- | --- | --- | --- | --- | --- | --- | --- |
| 0.4 µg/mL (≈ 1.07 µM) | 0.2 µg/mL (≈ 0.534 µM) | 6.25 µg/mL (≈ 16.7 µM) | 3.12 µg/mL (≈ 8.33 µM) | 0.2 µg/mL (≈ 0.534 µM) | CC1CN(c2c(F)cc3c(=O)c(C(=O)O)cn4c3c2CC[C@@H]4C)CCC1O (mixture of isomers) [Compound A, S-(−)-9-fluoro-6,7-dihydro-8-{trans-4-(RS)-hydroxy-3-(RS)-methylpiperidin-1-yl}-5-methyl-1-oxo-1H,5H-benzo[i,j]quinolizine-2-carboxylic acid] |  |  |  |  |  |
| 0.8 µg/mL (≈ 2.14 µM) | 0.2 µg/mL (≈ 0.534 µM) | 6.25 µg/mL (≈ 16.7 µM) | 6.25 µg/mL (≈ 16.7 µM) | 0.2 µg/mL (≈ 0.534 µM) | CC1CN(c2c(F)cc3c(=O)c(C(=O)O)cn4c3c2CC[C@@H]4C)CCC1O (mixture of isomers) [Compound B] |  |  |  |  |  |
| 1.56 µg/mL (≈ 4.33 µM) | 0.4 µg/mL (≈ 1.11 µM) | 12.5 µg/mL (≈ 34.7 µM) | 6.25 µg/mL (≈ 17.3 µM) | 0.4 µg/mL (≈ 1.11 µM) | CC1CCc2c(N3CCC(O)CC3)c(F)cc3c(=O)c(C(=O)O)cn1c23 (racemic) [Ref. 1, RS(±)-9-fluoro-8-(4′-hydroxypiperidin-1-yl)-5-methyl-6,7-dihydro-1-oxo-1H-5H-benzo[i,j]quinolizine-2-carboxylic acid, reference compound] |  |  |  |  |  |
| 0.8 µg/mL (≈ 2.14 µM) | 0.1 µg/mL (≈ 0.267 µM) | 6.25 µg/mL (≈ 16.7 µM) | 6.25 µg/mL (≈ 16.7 µM) | 0.1 µg/mL (≈ 0.267 µM) | C[C@H]1CN(c2c(F)cc3c(=O)c(C(=O)O)cn4c3c2CC[C@@H]4C)CC[C@H]1O (relative stereo) [Compound C, S-(−)-9-fluoro-6,7-dihydro-8-{cis-(−)-4-R-hydroxy-3-S-methylpiperidin-1-yl}-5-methyl-1-oxo-1H,5H-benzo[i,j]quinolizine-2-carboxylic acid] |  |  |  |  |  |
| 0.8 µg/mL (≈ 2.14 µM) | 0.8 µg/mL (≈ 2.14 µM) | 6.25 µg/mL (≈ 16.7 µM) | 6.25 µg/mL (≈ 16.7 µM) | 0.2 µg/mL (≈ 0.534 µM) | C[C@@H]1CN(c2c(F)cc3c(=O)c(C(=O)O)cn4c3c2CC[C@@H]4C)CC[C@@H]1O (relative stereo) [Compound D, S-(−)-9-fluoro-6,7-dihydro-8-{cis-(+)-4-S-hydroxy-3-R-methylpiperidin-1-yl}-5-methyl-1-oxo-1H,5H-benzo[i,j]quinolizine-2-carboxylic acid] |  |  |  |  |  |
| 1.56 µg/mL (≈ 4.02 µM) | 0.2 µg/mL (≈ 0.515 µM) | 12.5 µg/mL (≈ 32.2 µM) | >12.5 µg/mL | 0.8 µg/mL (≈ 2.06 µM) | CCC1CN(c2c(F)cc3c(=O)c(C(=O)O)cn4c3c2CC[C@@H]4C)CCC1O (stereo partly drawn) [Compound E, S-(−)-9-fluoro-6,7-dihydro-8-(3-ethyl-4-hydroxypiperidin-1-yl)-5-methyl-1-oxo-1H,5H-benzo[i,j]quinolizine-2-carboxylic acid] |  |  |  |  |  |
| 0.8 µg/mL (≈ 2.22 µM) | 0.2 µg/mL (≈ 0.555 µM) | 6.25 µg/mL (≈ 17.3 µM) | 3.12 µg/mL (≈ 8.66 µM) | 0.2 µg/mL (≈ 0.555 µM) | C[C@H]1CCc2c(N3CCC(O)CC3)c(F)cc3c(=O)c(C(=O)O)cn1c23 [Ref. 2, S-(−)-9-fluoro-8-(4′-hydroxypiperidin-1-yl)-5-methyl-6,7-dihydro-1-oxo-1H-5H-benzo[i,j]quinolizine-2-carboxylic acid, reference compound] | 50% | 0% | 40% | 45.4% | ≤ 50% |
|  |  |  |  |  | CC1CN(c2c(F)cc3c(=O)c(C(=O)O)cn4c3c2CC[C@@H]4C)CCC1O (stereo partly drawn) [Typical compound of the invention, S-(-)-9-fluoro-6,7-dihydro-8-(4-hydroxy-3-methylpiperidin-1-yl)-5-methyl-1-oxo-1H,5H-benzo[i,j]quinolizine-2-carboxylic acid] | 99.8% | 99.7% | 98.6% | 98.4% | 99% |
